From article PMC6401477, “Quorum Sensing Signal Selectivity and the Potential for Interspecies Cross Talk” (mBio, 2019)
Several values for one entry are separate records, joined by “and”; a condition that tells them apart may be missing. Equal entries are not always repeated. Where two headings read alike, the source gives them in different places.

What was measured:
[1] = target: T1, QscR (Pseudomonas aeruginosa, UniProt G3XD77); test: cell-based; settings: P. aeruginosa PAO-SC4 (pPROBE-PPA1897); read-out: EC50 QscR in native host
T1 construct: expressed in transfected cells; host or cells: E. coli 5α (DH5α) with pJNQ and pPROBE-PPA1897
T1 sequence (G3XD77 1-237): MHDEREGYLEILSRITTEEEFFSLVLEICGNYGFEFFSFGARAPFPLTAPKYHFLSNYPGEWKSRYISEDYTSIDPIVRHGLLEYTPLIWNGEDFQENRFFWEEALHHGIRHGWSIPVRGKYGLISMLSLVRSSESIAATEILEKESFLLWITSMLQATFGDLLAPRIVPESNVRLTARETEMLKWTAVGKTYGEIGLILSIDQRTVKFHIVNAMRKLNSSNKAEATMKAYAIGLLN

[2] = target: T2, BtaR1 (Burkholderia thailandensis, UniProt Q2T543); test: cell-based; set-up: species or system B. thailandensis
T2 sequence (Q2T543 1-239): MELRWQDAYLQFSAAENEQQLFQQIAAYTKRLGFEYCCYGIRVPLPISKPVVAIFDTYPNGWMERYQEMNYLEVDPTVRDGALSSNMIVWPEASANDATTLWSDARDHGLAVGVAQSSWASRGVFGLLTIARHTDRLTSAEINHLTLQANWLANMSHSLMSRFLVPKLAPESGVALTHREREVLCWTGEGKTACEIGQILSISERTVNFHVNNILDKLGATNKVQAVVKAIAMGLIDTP

[3] = target: T3, LuxR (Aliivibrio fischeri, UniProt P12746); test: cell-based; settings: V. fischeri MJ215, luminescence; read-out: EC50 LuxR in native host
T3 construct: endogenous in cells; host or cells: V. fischeri MJ215
T3 sequence (P12746 1-250): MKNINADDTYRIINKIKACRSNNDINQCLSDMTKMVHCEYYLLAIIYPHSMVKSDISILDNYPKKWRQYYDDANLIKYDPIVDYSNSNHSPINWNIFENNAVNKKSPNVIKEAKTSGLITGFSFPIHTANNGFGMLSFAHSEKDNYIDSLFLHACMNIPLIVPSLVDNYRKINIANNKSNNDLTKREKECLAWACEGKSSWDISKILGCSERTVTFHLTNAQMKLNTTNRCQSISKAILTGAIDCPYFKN

[4] = target: T4, CviR (Chromobacterium violaceum, UniProt D3W065); test: cell-based; settings: C. violaceum CV026, violacein; read-out: EC50 CviR in native host
T4 construct: Violacein was used as a measure of CviR activity in C. violaceum (CV026); endogenous in cells; host or cells: C. violaceum CV026

[5] = target: T2, BtaR1; test: cell-based; set-up: species or system B. thailandensis; remark: listed apart in the source
[6] = target: T5, BtaR2 (Burkholderia thailandensis, UniProt Q2T5X2); test: cell-based; set-up: species or system B. thailandensis
T5 sequence (Q2T5X2 1-234): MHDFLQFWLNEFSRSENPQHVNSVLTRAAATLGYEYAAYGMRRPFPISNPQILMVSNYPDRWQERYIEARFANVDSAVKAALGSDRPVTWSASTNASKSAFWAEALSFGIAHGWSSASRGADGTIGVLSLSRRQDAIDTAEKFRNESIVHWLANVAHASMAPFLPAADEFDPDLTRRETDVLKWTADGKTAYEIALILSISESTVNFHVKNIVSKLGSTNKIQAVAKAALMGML

[7] = target: T6, LasR (Pseudomonas aeruginosa, UniProt P25084); test: cell-based; settings: P. aeruginosa PAO-SC4 (pPROBE-PrsaL); mean ± SEM, n ≥ 3; read-out: EC50 LasR in native host
T6 construct: expressed in transfected cells; host or cells: E. coli 5α (DH5α) with pJNL and pPROBE-PrsaL
T6 sequence (P25084 1-239): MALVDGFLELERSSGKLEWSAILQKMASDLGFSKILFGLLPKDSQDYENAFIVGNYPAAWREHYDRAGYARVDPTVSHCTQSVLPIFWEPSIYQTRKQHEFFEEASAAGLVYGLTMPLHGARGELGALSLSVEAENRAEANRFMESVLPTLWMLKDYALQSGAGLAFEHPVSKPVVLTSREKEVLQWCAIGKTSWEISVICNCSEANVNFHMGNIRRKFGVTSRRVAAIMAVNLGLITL

[8] = target: T6, LasR; test: cell-based; set-up: species or system P. aeruginosa; settings: receptor expressed in E. coli (DH5α), arabinose-induced
[9] = target: T7, RhlR (Pseudomonas aeruginosa, UniProt P54292); test: cell-based; format: cell-based, P. aeruginosa; settings: for EC50: receptor expressed in E. coli (DH5α), arabinose-induced
T7 sequence (P54292 1-241): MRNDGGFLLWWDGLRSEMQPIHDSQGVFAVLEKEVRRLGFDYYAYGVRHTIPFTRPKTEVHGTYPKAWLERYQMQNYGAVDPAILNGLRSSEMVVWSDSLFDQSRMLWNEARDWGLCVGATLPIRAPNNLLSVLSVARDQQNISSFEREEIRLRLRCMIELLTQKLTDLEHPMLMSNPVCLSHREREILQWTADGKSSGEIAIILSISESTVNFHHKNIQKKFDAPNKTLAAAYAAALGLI

[10] = target: T1, QscR; test: cell-based; set-up: species or system P. aeruginosa; settings: receptor expressed in E. coli (DH5α), arabinose-induced
[11] = target: T7, RhlR; format: cell-based; settings: at 1 mM; native P. aeruginosa reporter
[12] = target: T5, BtaR2; test: cell-based; set-up: species or system B. thailandensis; remark: listed apart in the source
[13] = target: T7, RhlR; test: cell-based; set-up: species or system P. aeruginosa; settings: rhlR overexpressed via pJNR in PAO-SC4; mean ± SEM, n ≥ 3; read-out: EC50 overexpression (RhlR)

CCCC(=O)CC(=O)N[C@H]1CCOC1=O [3OC6-HSL]
EC50 [1]: > 100 µM | EC50 [2]: > 100 µM | EC50 [3]: 0.272 µM and 0.27 µM | EC50 [4]: 0.98 ± 0.26 µM | EC50 [5]: > 100 µM | EC50 [6]: > 100 µM

CCCCCC(=O)CC(=O)N[C@H]1CCOC1=O [3OC8-HSL]
EC50 [7]: 59.1 ± 7.5 µM | EC50 [3]: 0.49 ± 0.11 µM | EC50 [4]: 5.47 ± 0.27 µM | EC50 [8]: 17.4 ± 6.5 µM | EC50 [5]: 1.1 ± 0.29 µM

CCCCCCCC(=O)CC(=O)N[C@H]1CCOC1=O [3OC10-HSL]
EC50 [3]: 4 ± 0.51 µM | EC50 [4]: > 100 µM | EC50 [8]: 0.21 ± 0.06 µM | EC50 [9]: > 100 µM | EC50 [10]: 0.26 ± 0.16 µM | EC50 [5]: 2.83 ± 1.61 µM

CCCCCCCCCC(=O)CC(=O)N[C@H]1CCOC1=O [3OC12-HSL, N-3-oxo-dodecanoyl-L-homoserine lactone]
EC50 [3]: 7.1 ± 2 µM | EC50 [4]: > 100 µM | effect on RhlR activity in E. coli ([9]; AHL 100 µM (Fig. S3)): does not affect | EC50 [9]: > 100 µM

CCCCCCCCCCCC(=O)CC(=O)N[C@H]1CCOC1=O [3OC14-HSL, N-3-oxotetradecanoyl-L-homoserine lactone]
EC50 [7]: 2.35 ± 0.66 µM | EC50 [2]: > 100 µM | EC50 [3]: > 100 µM | EC50 [4]: > 100 µM | EC50 [8]: 0.0125 ± 0.0045 µM | EC50 [9]: > 100 µM | EC50 [5]: 1.26 ± 0.25 µM

CCCCCCCCCCCCCC(=O)CC(=O)N[C@H]1CCOC1=O [3OC16-HSL]
EC50 [7]: 7.05 ± 1.88 µM | EC50 [1]: > 100 µM | EC50 [2]: > 100 µM | EC50 [3]: > 100 µM | EC50 [4]: > 100 µM | EC50 [8]: 0.13 ± 0.03 µM | EC50 [9]: > 100 µM | EC50 [10]: 0.17 ± 0.07 µM | EC50 [5]: 1.37 ± 0.27 µM

CC(O)CC(=O)N[C@H]1CCOC1=O (stereo partly drawn) [3OHC4-HSL]
EC50 [7]: > 100 µM | EC50 [1]: > 100 µM | EC50 [2]: > 100 µM | EC50 [3]: > 100 µM | EC50 [4]: > 100 µM | EC50 [8]: > 100 µM | EC50 [9]: > 100 µM | EC50 [10]: > 100 µM | EC50 [6]: 25 ± 2.6 µM

CCCC(O)CC(=O)N[C@H]1CCOC1=O (stereo partly drawn) [3OHC6-HSL]
EC50 [7]: > 100 µM | EC50 [1]: > 100 µM | EC50 [2]: > 100 µM | EC50 [8]: > 100 µM | EC50 [9]: > 100 µM | EC50 [10]: > 100 µM | EC50 [5]: > 100 µM

CCCCCC(O)CC(=O)N[C@H]1CCOC1=O (stereo partly drawn) [3OHC8-HSL, N-3-hydroxyoctanoyl-L-homoserine lactone]
EC50 [7]: > 100 µM | EC50 [1]: > 100 µM | EC50 [3]: > 100 µM | EC50 [4]: 21.2 ± 6.6 µM | EC50 [9]: > 100 µM | EC50 [10]: 5.82 ± 1.49 µM

CCCCCCCC(O)CC(=O)N[C@H]1CCOC1=O (stereo partly drawn) [3OHC10-HSL]
EC50 [3]: > 100 µM | EC50 [8]: 7.91 ± 0.45 µM | EC50 [9]: > 100 µM | EC50 [10]: 0.0299 ± 0.0134 µM | EC50 [5]: 1.82 ± 0.07 µM

CCCCCCCCCC(O)CC(=O)N[C@H]1CCOC1=O (stereo partly drawn) [3OHC12-HSL]
EC50 [7]: 48.4 ± 13.2 µM | EC50 [1]: 23.9 ± 9.2 µM | EC50 [3]: > 100 µM | EC50 [4]: > 100 µM | EC50 [8]: 1.23 ± 0.86 µM | EC50 [9]: > 100 µM | EC50 [10]: 0.11 ± 0.05 µM | EC50 [6]: 0.0915 ± 0.0252 µM

CCCCCCCCCCCC(O)CC(=O)N[C@H]1CCOC1=O (stereo partly drawn) [3OHC14-HSL]
EC50 [7]: 2.66 ± 0.68 µM | EC50 [2]: > 100 µM | EC50 [3]: > 100 µM | EC50 [4]: > 100 µM | EC50 [8]: 0.2 ± 0.02 µM | EC50 [9]: > 100 µM | EC50 [10]: 0.15 ± 0.04 µM | EC50 [5]: 2.23 ± 0.73 µM

CCCC(=O)N[C@H]1CCOC1=O [C4-HSL, N-butyryl-L-homoserine lactone]
EC50 [7]: > 100 µM | saturation of RhlR activity [11]: not saturated | EC50 [1]: > 100 µM | EC50 [2]: > 100 µM | EC50 [12]: > 100 µM | EC50 [3]: > 100 µM | EC50 [4]: 14.3 ± 3.8 µM | EC50 [8]: > 100 µM | EC50 [9]: 122 ± 17 µM | EC50 [10]: > 100 µM | EC50 [6]: > 100 µM | EC50 [13]: 12 ± 3.1 µM

CCCCCC(=O)N[C@H]1CCOC1=O [C6-HSL]
EC50 [7]: > 100 µM | EC50 [1]: > 100 µM | EC50 [4]: 0.0834 ± 0.0245 µM | EC50 [8]: > 100 µM | EC50 [9]: 134 ± 26 µM | EC50 [6]: > 100 µM

CCCCCCCC(=O)N[C@H]1CCOC1=O [C8-HSL]
EC50 [7]: > 100 µM | EC50 [1]: > 100 µM | EC50 [12]: 13.9 ± 2.1 µM | EC50 [4]: 1.66 ± 0.92 µM | EC50 [10]: 1.9 ± 0.27 µM

CCCCCCCCCC(=O)N[C@H]1CCOC1=O [C10-HSL, N-decanoyl-L-homoserine lactone]
EC50 [3]: 42 ± 7.6 µM | EC50 [4]: > 100 µM | EC50 [8]: 8.67 ± 1.49 µM | EC50 [9]: > 100 µM

CCCCCCCCCCCC(=O)N[C@H]1CCOC1=O [C12-HSL]
EC50 [3]: > 100 µM | EC50 [4]: > 100 µM | EC50 [8]: 0.66 ± 0.07 µM | EC50 [9]: > 100 µM

CCCCCCCCCCCCCC(=O)N[C@H]1CCOC1=O [C14-HSL]
EC50 [1]: > 100 µM | EC50 [3]: > 100 µM | EC50 [4]: > 100 µM | EC50 [8]: 0.36 ± 0.13 µM | EC50 [9]: > 100 µM | EC50 [10]: 0.0896 ± 0.0201 µM | EC50 [5]: 0.97 ± 0.35 µM

CCCCCCCCCCCCCCCC(=O)N[C@H]1CCOC1=O [C16-HSL]
EC50 [7]: > 100 µM | EC50 [1]: > 100 µM | EC50 [12]: > 100 µM | EC50 [3]: > 100 µM | EC50 [4]: > 100 µM | EC50 [9]: > 100 µM | EC50 [10]: > 100 µM | EC50 [6]: > 100 µM
